Laboratory results reported in ChEMBL document CHEMBL5108044, “Discovery of a Novel Potent STAT3 Inhibitor HP590 with Dual p-Tyr705/Ser727 Inhibitory Activity for Gastric Cancer Treatment” (J Med Chem, 2022).
The source made the active and inactive calls. No cut-off for these calls is given here.

Experiments:
[1] = biological target: Tyrosine-protein kinase JAK1 (Homo sapiens, UniProt P23458); experiment: Inhibition of JAK1 (unknown origin)
[2] = biological target: T1, Signal transducer and activator of transcription 3 (Homo sapiens, UniProt P40763); experiment: Inhibition of STAT3 in human MKN-45 cells assessed as downregulation of Bcl2 expression at 10 to 40 nM incubated for 24 hrs by RT-PCR analysis; assay type: cell-based; conditions: dose 10-40 nM
AGS [3] = experiment: Inhibition of colony formation in human AGS cells assessed as reduction in number of colonies incubated for 5 to 7 days by crystal violet staining based assay; assay type: functional, cell-based; conditions: dose <= 20.0 nM, time 5-7 day, DDE = dose-dependent effect
[4] = Elimination half life in ICR mouse plasma at 10 mg/kg, po measured up to 24 hrs by LC-MS/MS analysis; assay type: ADME, organism-based; conditions: read-out: beta t1/2 (converted)
[5] = biological target: T1, Signal transducer and activator of transcription 3; experiment: Inhibition of STAT3 phosphorylation at Tyr705 residue in human MKN-45 cells incubated upto 24 hrs by Western blotting analysis; assay type: cell-based; conditions: dose <= 40.0 nM, DDE = dose-dependent effect
[6] = biological target: T1, Signal transducer and activator of transcription 3; experiment: Inhibition of STAT3 in human MKN-45 cells assessed as downregulation of c-Myc expression up to 40 nM by western blot analysis; assay type: cell-based; conditions: time <= 24.0 hrs, DDE = dose-dependent effect
MKN-45 [7] = experiment: In vivo inhibition of STAT3 phosphorylation at Ser727 residue in human MKN-45 cells xenografted in BALB/c nude mouse at 25 to 50 mg/kg, po qd administered for 5 weeks by immunohistochemical analysis; assay type: functional, organism-based; conditions: dose 25-50 mg/kg
[8] = Toxicity in BALB/c nude mouse xenografted with human MKN-45 cells assessed as lung damage at 25 to 50 mg/kg, po qd administered for 5 weeks by H and E staining based analysis; assay type: organism-based; conditions: in vivo, 840 h, dose 25-50 mg/kg
MKN-45 [9] = experiment: Induction of apoptosis in human MKN-45 cells assessed as viable cells at 10 nM incubated for 48 hrs by FITC-annexin V/propidium iodide staining based flow cytometry (reference value: 68%); assay type: functional; conditions: read-out: Activity
[10] = Toxicity in […] mouse assessed as body weight loss at 25 to 50 mg/kg, po qd administered for 5 weeks; assay type: organism-based; conditions: in vivo, 840 h, dose 25-50 mg/kg
MGC-803 = experiment: Inhibition of colony formation in STAT3 knockdown human MGC-803 cells assessed as reduction in number of colonies incubated for 5 to 7 days by crystal violet staining based assay; assay type: functional, cell-based; conditions: time 5-7 day
[11] = Cmax in ICR mouse plasma at 1 mg/kg, iv measured up to 24 hrs by LC-MS/MS analysis; assay type: ADME, organism-based; design: time < 24 hrs, dose 1 mg/kg, route iv
MKN-45 [12] = experiment: Induction of apoptosis in human MKN-45 cells assessed as late apoptic cells 20 nM incubated for 48 hrs by FITC-annexin V/propidium iodide staining based flow cytometry (reference value: 17.9%); assay type: functional
[13] = biological target: T1, Signal transducer and activator of transcription 3; experiment: Inhibition of STAT3 in human MGC-803 cells assessed as downregulation of cyclin D1 expression incubated up to 24 hrs by western blot analysis; assay type: cell-based; conditions: dose <= 40.0 nM, DDE = dose-dependent effect
Cytochrome P450 2C19 = Cytochrome P450 2C19 (Homo sapiens, UniProt P33261); experiment: Inhibition of CYP2C19 in human liver microsome; assay type: ADME, microsomes
GES1 = experiment: Antiproliferative activity against human GES1 cells assessed as cell viability measured upto 1 uM incubated for 72 hrs by MTS assay; assay type: toxicity, cell-based; conditions: ges1, 72 h
AGS [14] = experiment: Induction of apoptosis in human AGS cells assessed as necrotic cells 20 nM incubated for 48 hrs by FITC-annexin V/propidium iodide staining based flow cytometry (reference value: 2.70%); assay type: functional
[15] = biological target: T1, Signal transducer and activator of transcription 3; experiment: Inhibition of STAT3 phosphorylation at Ser727 residue in human MKN-45 cells upto 40 nM by Western blotting analysis; assay type: cell-based; conditions: time <= 24.0 hrs, TDE = time-dependent effect
AGS [16] = experiment: Induction of apoptosis in human AGS cells assessed as viable cells at 5 nM incubated for 48 hrs by FITC-annexin V/propidium iodide staining based flow cytometry (reference value: 87.2%); assay type: functional; conditions: read-out: Activity
[17] = biological target: T1, Signal transducer and activator of transcription 3; experiment: Inhibition of STAT3 phosphorylation at Ser727 residue in human MKN-45 cells upto 40 nM incubated upto 24 hrs by Western blotting analysis; assay type: cell-based
MKN-45 [18] = experiment: Induction of apoptosis in human MKN-45 cells assessed as early apoptic cells 5 nM incubated for 48 hrs by FITC-annexin V/propidium iodide staining based flow cytometry (reference value: 2.79%); assay type: functional
[19] = biological target: T1, Signal transducer and activator of transcription 3; experiment: Inhibition of STAT3 phosphorylation at Tyr705 residue in human MGC-803 cells incubated upto 24 hrs by Western blotting analysis; assay type: cell-based; conditions: dose <= 40.0 nM, DDE = dose-dependent effect
[20] = biological target: T1, Signal transducer and activator of transcription 3; experiment: Inhibition of STAT3 in human GES1cells assessed as downregulation of Cyclin D1 expression at 10 to 40 nM incubated for 24 hrs by RT-PCR analysis; assay type: cell-based; conditions: GES1, dose 10-40 nM
MKN-45 [21] = experiment: Inhibition of mitochondrial respiration in STAT3 knockdown human MKN-45 cells assessed as basal oxygen consumption rate incubated for 80 mins […]; assay type: functional, cell-based
[22] = biological target: T1, Signal transducer and activator of transcription 3; experiment: Inhibition of STAT3 phosphorylation at Ser727 residue in human MGC-803 cells upto 40 nM incubated upto 24 hrs by Western blotting analysis; assay type: cell-based
AGS [23] = experiment: Induction of apoptosis in human AGS cells assessed as late apoptic cells 20 nM incubated for 48 hrs by FITC-annexin V/propidium iodide staining based flow cytometry (reference value: 9.56%); assay type: functional
MKN-45 [24] = experiment: In vivo inhibition of STAT3 phosphorylation at Ser727 residue in human MKN-45 cells xenografted in BALB/c nude mouse at 25 to 50 mg/kg, po qd administered for 5 weeks by western blot analysis; assay type: functional, organism-based; conditions: dose 25-50 mg/kg
[25] = biological target: Mitogen-activated protein kinase 8 (Homo sapiens, UniProt P45983); experiment: Inhibition of JNK1 (unknown origin)
MKN-45 [26] = experiment: Antitumor activity against human MKN-45 cells xenografted in po dosed BALB/c nude mouse assessed as decrease in tumor volume measured for 5 weeks; assay type: functional, organism-based; conditions: dose 25-50 mg/kg, DDE = dose-dependent effect
MKN-45 [27] = experiment: In vivo inhibition of STAT3 in human MKN-45 cells xenografted in BALB/c nude mouse assessed as reduction in cyclin D1 gene expression at 25 to 50 mg/kg, po qd administered for 5 weeks by Western blot analysis; assay type: functional, organism-based; conditions: dose 25-50 mg/kg
[28] = Toxicity in […] mouse xenografted with human MKN-45 cells assessed as liver damage at 25 to 50 mg/kg, po qd administered for 5 weeks by H and E staining based analysis; assay type: organism-based; conditions: in vivo, 840 h, dose 25-50 mg/kg
[29] = biological target: T1, Signal transducer and activator of transcription 3; experiment: Inhibition of STAT3 in human MKN-45 cells assessed as downregulation of cyclin D1 expression incubated up to 24 hrs by western blot analysis; assay type: cell-based; conditions: dose <= 40.0 nM, DDE = dose-dependent effect
[30] = Toxicity in BALB/c nude mouse xenografted with human MKN-45 cells assessed as heart damage at 25 to 50 mg/kg, po qd administered for 5 weeks by H and E staining based analysis; assay type: organism-based; conditions: in vivo, 840 h, dose 25-50 mg/kg
[31] = Toxicity in BALB/c nude mouse xenografted with human MKN-45 cells assessed as kidney damage at 25 to 50 mg/kg, po qd administered for 5 weeks by H and E staining based analysis; assay type: organism-based; conditions: in vivo, 840 h, dose 25-50 mg/kg
[32] = biological target: T1, Signal transducer and activator of transcription 3; experiment: Inhibition of STAT3 in human MGC-803 cells assessed as downregulation of c-Myc expression up to 40 nM by western blot analysis; assay type: cell-based; conditions: time <= 24.0 hrs, DDE = dose-dependent effect

T1 sequence (P40763 whole entry): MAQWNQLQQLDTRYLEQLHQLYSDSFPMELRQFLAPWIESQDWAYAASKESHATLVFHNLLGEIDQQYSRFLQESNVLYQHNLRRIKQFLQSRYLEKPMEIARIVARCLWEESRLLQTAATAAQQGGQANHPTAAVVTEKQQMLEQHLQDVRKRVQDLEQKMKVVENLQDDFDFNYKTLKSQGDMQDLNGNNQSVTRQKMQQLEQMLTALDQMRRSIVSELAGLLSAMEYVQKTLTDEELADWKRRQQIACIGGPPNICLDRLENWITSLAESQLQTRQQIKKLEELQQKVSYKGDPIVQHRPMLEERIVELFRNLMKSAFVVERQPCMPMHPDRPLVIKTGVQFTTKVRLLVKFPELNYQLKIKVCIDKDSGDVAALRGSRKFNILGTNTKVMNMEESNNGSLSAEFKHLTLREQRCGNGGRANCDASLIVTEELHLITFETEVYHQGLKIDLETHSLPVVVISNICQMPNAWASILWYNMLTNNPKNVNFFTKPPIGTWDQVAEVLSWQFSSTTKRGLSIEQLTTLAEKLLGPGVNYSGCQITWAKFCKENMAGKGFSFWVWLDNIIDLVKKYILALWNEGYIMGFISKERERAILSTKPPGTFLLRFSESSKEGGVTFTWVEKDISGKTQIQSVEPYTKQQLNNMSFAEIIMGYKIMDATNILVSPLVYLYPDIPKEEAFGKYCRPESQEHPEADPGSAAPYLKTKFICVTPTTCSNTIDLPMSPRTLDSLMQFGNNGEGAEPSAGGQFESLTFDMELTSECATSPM
Chain of Mitogen-activated protein kinase 8 (P45983 whole entry): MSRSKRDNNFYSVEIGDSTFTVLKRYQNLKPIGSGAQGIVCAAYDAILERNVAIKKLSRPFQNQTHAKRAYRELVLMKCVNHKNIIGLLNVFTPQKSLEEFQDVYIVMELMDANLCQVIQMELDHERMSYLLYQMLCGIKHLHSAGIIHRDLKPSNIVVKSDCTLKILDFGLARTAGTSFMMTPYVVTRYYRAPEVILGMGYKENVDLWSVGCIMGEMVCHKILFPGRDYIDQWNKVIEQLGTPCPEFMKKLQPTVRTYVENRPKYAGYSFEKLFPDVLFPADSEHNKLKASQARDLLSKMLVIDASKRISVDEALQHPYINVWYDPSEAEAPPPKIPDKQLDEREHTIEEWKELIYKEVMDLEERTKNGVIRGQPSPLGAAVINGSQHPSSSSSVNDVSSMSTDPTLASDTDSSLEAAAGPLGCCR
Chain of Tyrosine-protein kinase JAK1 (P23458 whole entry): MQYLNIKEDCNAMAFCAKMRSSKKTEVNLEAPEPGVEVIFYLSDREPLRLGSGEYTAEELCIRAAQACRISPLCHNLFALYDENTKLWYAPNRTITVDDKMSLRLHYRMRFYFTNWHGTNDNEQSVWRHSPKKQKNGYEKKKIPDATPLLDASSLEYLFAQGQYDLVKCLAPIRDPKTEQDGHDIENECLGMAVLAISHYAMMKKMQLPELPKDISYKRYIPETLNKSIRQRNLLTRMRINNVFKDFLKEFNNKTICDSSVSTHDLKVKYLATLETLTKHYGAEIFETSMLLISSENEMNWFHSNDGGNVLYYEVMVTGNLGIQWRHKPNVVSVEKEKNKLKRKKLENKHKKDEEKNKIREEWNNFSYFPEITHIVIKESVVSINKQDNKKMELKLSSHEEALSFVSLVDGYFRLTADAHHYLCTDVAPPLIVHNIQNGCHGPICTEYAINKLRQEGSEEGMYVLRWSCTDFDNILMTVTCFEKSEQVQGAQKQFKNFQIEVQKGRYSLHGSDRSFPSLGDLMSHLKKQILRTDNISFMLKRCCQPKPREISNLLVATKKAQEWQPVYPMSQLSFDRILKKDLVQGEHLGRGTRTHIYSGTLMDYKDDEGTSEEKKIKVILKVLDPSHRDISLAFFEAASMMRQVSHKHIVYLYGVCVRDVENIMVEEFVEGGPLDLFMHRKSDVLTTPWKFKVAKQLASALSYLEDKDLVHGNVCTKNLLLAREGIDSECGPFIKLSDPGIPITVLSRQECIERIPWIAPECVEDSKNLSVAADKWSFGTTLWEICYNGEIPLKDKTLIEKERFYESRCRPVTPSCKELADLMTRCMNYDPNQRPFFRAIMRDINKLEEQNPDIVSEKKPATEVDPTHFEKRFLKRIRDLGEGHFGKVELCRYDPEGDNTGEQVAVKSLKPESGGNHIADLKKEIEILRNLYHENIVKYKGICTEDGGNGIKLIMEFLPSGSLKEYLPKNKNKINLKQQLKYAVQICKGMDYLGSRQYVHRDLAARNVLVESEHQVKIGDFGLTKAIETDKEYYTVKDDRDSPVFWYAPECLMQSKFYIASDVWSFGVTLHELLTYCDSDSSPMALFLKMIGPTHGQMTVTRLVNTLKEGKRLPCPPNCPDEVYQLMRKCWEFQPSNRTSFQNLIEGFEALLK
Chain of Cytochrome P450 2C19 (P33261 whole entry): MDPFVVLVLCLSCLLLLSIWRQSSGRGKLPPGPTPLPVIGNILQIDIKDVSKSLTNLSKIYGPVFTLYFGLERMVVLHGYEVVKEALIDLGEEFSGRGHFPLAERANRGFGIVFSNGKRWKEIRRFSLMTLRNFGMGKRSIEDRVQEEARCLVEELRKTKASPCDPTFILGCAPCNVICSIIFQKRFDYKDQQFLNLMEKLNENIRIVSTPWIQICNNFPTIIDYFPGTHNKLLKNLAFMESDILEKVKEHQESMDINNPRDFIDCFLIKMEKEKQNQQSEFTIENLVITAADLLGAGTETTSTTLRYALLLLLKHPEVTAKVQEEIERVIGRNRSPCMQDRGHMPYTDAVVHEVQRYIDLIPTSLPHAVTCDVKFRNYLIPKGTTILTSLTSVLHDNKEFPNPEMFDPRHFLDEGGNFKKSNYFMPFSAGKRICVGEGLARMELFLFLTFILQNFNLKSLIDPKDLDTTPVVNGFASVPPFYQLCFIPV

O=C(c1ccc(-c2noc(-c3ccc(C(F)(F)F)cc3)n2)cc1)N1CCN(Cc2ccc(OCC(F)(F)F)cc2)CC1
IC50 [1]: > 10 µM | inhibition [2]: Active | inhibition (AGS [3]): Dde | half-life [4]: 16 h | inhibition [5]: Dde | inhibition [6]: Dde | inhibition (MKN-45 [7]): Active | Activity [8]: Non-Toxic | viability at 0.01 µM (MKN-45 [9]): 68.5% | Activity [10]: Non-Toxic | inhibition (MGC-803): Active | Cmax [11]: 666 ng/mL | Activity (MKN-45 [12]): 22% | inhibition [13]: Dde | IC50 (Cytochrome P450 2C19): 15.9 µM | Activity (GES1): Non-Toxic | Activity (AGS [14]): 0.8% | inhibition [15]: Tde | viability at 0.005 µM (AGS [16]): 85.7% | inhibition [17]: 100% | Activity (MKN-45 [18]): 4.73% | inhibition [19]: Dde | inhibition [20]: Active | inhibition (MKN-45 [21]): Active | inhibition [22]: 100% | Activity (AGS [23]): 27.1% | inhibition (MKN-45 [24]): Active | IC50 [25]: > 10 µM | Activity (MKN-45 [26]): Dde | inhibition (MKN-45 [27]): Active | Activity [28]: Non-Toxic | inhibition [29]: Dde | Activity [30]: Non-Toxic | Activity [31]: Non-Toxic | inhibition [32]: Dde
